From patent publication US3974277A, “2-[2-(5-Nitro-2-furyl)vinyl]-4-(anilino)quinazolines as growth promotants and feed efficiency enhancing agents” (Diamond Shamrock Corporation, priority 1975, dated 1976)
Positions of bridges follow the written chain, without caps; N, C: chain ends. Non-standard residues stand in square brackets, D forms with d. Residues, ends and D or L forms follow the SMILES beside them. *: point of attachment. Ileψ(thiazoline)Cys = CC[C@H](C)[C@H](N)C1=N[C@H](C(=O)*)CS1; dOrn = NCCC[C@@H](N)C(=O)O

How the values were obtained:
[1] = Chick growth promotion, Example XII first test (Table VI); assay type: in vivo, broiler cross chicks; conditions: first set of tests, 25 g/T
Excerpt: (§1) The growth promotion tests described in Example X were repeated with the additional testing the products of Examples II and III.

[2] = Chick growth promotion, Example XII repeat test (Table VII); assay type: in vivo, broiler cross chicks; conditions: second set of tests, 25 g/T
Excerpt: as §1

[3] = Chick growth promotion and feed efficiency at low levels, Example VIII (Table II); assay type: in vivo, broiler cross chicks
Excerpt: Day old broiler cross chicks were weight equalized into groups of 8 chicks each and were placed in battery brooders. The 32 chick treatment groups (4 replicates) were fed one of the five rations described below for a 4 week period. Weekly measurements of body weights and feed consumption were made by replicate, and these measurements used to calculate weight gain and feed efficiency.
The basal ration was the basal ration used in Example VII above. The remaining five rations were obtained by mixing the indicated quantities by bacitracin (4 g/T), chlortetracycline (10 g/T), product of Example I (10 g/T), and product of Example III of U.S. Pat. No. 3,542,784 -- Burch (10 g/T) as growth promotants with the basal ration.

[4] = Chick growth promotion comparison, Example XI (Table V); assay type: in vivo, broiler cross chicks; conditions: 25 g/T, 4 weeks
Excerpt: The growth promotion tests described in Example X were repeated with the exception that five replicates of 8 chicks each were fed the formulations described in Table V for 4 weeks.

Streptococcus faecalis = assay: Bactericide test, agar growth inhibition; assay type: cell-based; conditions: vs chlortetracycline
Excerpt: (§2) Test formulations were examined for bactericidal and/or bacteriostatic activity against the test organisms shown in Tables A and B. These organisms were chosen as being representative of commercially important pathogens affecting animal agriculture. The antibiotic chlortetracycline was chosen as a positive control, since it has a broad spectrum of activity against a large number of organisms, and its activity can be used for comparative purposes.
(§3) Basic test formulations of the product of Examples I, II, III, and of chlortetracycline were prepared by dissolving 16 mg (0.016 g) in 2.0 ml of stock emulsifier solution (0.25% Triton X-155 in acetone by volume) and making each solution up to 50 ml with deionized water. The concentration of the test compound in the basic formuation was 320 ppm. Lower concentrations of the test compound were obtained by diluting the basic formulation with a 4% solution of the stock emulsifier in deionized water so that each dilution in the series differed only in test compound content.
Nutrient-tryptic soy agar (NTA) consisting of 2.0% Difco Bactoagar 0.8% nutrient broth (Difco), and 0.5% tryptic soy broth (Difco) was prepared and sterilized by autoclaving. A 2 ml aliquot of each test formulation was added to 8 ml of molten NTA. This mixture was then plated in a sterile polystyrene petri dish (100 × 15 mm). After the agar was set, suspensions of each of the test organisms were simultaneously streaked into the surface of the agar. The inoculated plates were incubated for 48 hr at 28°C. The inhibition of growth of each organism was rated by visual comparison with the organism developing on non-treated agar. Growth inhibition reported as per cent control was rated in three categories as follows: 0% control, growth equivalent to that on non-treated agar; 50% control, sparse development and separated colonies; 100% control, no visible growth or development of colonies. […]

[5] = test system: Erysipelothrix rhusiopathiae; assay: Bactericide test, agar growth inhibition; assay type: cell-based; conditions: vs chlortetracycline
Excerpt: as §2, §3
(§4) Nutrient-tryptic soy agar (NTA) consisting of 2.0% Difco Bactoagar 0.8% nutrient broth (Difco), and 0.5% tryptic soy broth (Difco) was prepared and sterilized by autoclaving. A 2 ml aliquot of each test formulation was added to 8 ml of molten NTA. This mixture was then plated in a sterile polystyrene petri dish (100 × 15 mm). After the agar was set, suspensions of each of the test organisms were simultaneously streaked into the surface of the agar. The inoculated plates were incubated for 48 hr at 28°C. The inhibition of growth of each organism was rated by visual comparison with the organism developing on non-treated agar. Growth inhibition reported as per cent control was rated in three categories as follows: 0% control, growth equivalent to that on non-treated agar; 50% control, sparse development and separated colonies; 100% control, no visible growth or development of colonies.

[6] = test system: Bordetella bronchiseptica; assay: Bactericide test, agar growth inhibition; assay type: cell-based; conditions: vs chlortetracycline
Excerpt: as §2, §3, §4

Streptococcus group E = assay: Bactericide test, agar growth inhibition; assay type: cell-based; conditions: vs chlortetracycline
Excerpt: as §2, §3, §4

Vibrio coli = assay: Bactericide test, agar growth inhibition; assay type: cell-based; conditions: vs chlortetracycline
Excerpt: as §2, §3, §4

Streptococcus agalactiae = assay: Bactericide test, agar growth inhibition; assay type: cell-based; conditions: vs chlortetracycline
Excerpt: as §2, §3, §4

[7] = Chick growth promotion comparison, Example X (Table IV); assay type: in vivo, broiler cross chicks; conditions: 25 g/T
Excerpt: This example compares growth promotion activity of the product of Example I with other growth promotants at a concentration of 25 g/T in the Basal Ration described in Example VII. The other growth promotants include the product described in Example I of U.S. Pat. No. 3,542,784 -- Burch and quinoxaline-1,4-dioxide. Day old broiler cross chicks were weight equalized into groups of 8 chicks each, and four replicates of 8 chicks each were fed the experimental rations over a 4 week period.

[8] = Swine growth rate and feed efficiency, Example XIII (Table VIII); assay type: in vivo, weanling pigs; conditions: 25 g/T
Excerpt: Thirty-six weanling pigs weighing approximately 30 pounds each in good physical condition and originating from a common source were used in these tests. The pigs were allocated into sex and weight equalized pens of six pigs each. A 1 week period was allowed for acclimatization before testing. Three replicates of six pigs were fed the basal ration described below, and three replicates were fed the same basal ration supplemented with 25 g/T of the product of Example I.
The basal ration was a 17% commercial corn-soya pelletized formulation which was free of antibiotic and drug components. Composition of the basal ration formulation was: […]
The rations were offered ad libitum from 6 bushel self-feeders with a continuous supply of fresh water. The same ration formulations were used throughout the 6 week feeding period. Individual pig weighing were made after 0, 2, 4 and 6 (termination) week periods. Feed consumption records were kept on a pen basis, with feed efficiency conversion being compiled at the end of the 2nd, 4th and 6th (termination) week of feeding. Complete morbidity and mortality records were kept.

[9] = Chick growth promotion titration dosage, Example IX (Table III); assay type: in vivo, broiler cross chicks
Excerpt: The concentrations used in this test were 6.25, 12.5, 25, 50, 100, 200 and 400 g of the Product of Example I per ton of the Basal Ration described in Example VII above. The same number and size chick treatment groups were used in this test as in Example VIII above.

O=[N+]([O-])c1ccc(-c2nc(Nc3ccc(O)cc3)c3ccccc3n2)o1 [Example III of U.S. 3,542,784 - Burch, 2-(5-nitro-2-furyl)-4-(p-hydroxyanilino)quinazoline, reference compound]
effect on growth rate and feed efficiency (in words) [1]: essentially no effect on growth rate or feed efficiency in either test
effect on growth rate and feed efficiency (in words) [2]: essentially no effect on growth rate or feed efficiency in either test

CC[C@H](C)[C@H](N)C1=N[C@H](C(=O)N[C@@H](CC(C)C)C(=O)N[C@H](CCC(=O)O)C(=O)N[C@H](C(=O)N[C@H]2CCCCNC(=O)[C@H](CC(N)=O)NC(=O)[C@@H](CC(=O)O)NC(=O)[C@H](Cc3cnc[nH]3)NC(=O)[C@@H](Cc3ccccc3)NC(=O)[C@H]([C@@H](C)CC)NC(=O)[C@@H](CCCN)NC2=O)[C@@H](C)CC)CS1 [Bacitracin] ({Ileψ(thiazoline)Cys}-L[dE]IK[dOrn]I[dF]H[dD]N; lactam 4-C)
Improved Response Over Basal Ration, Feed Efficiency ([3]; 4 g/T, 4 weeks): +1.2%
Improved Response Over Basal Ration, Gain ([3]; 4 g/T, 4 weeks): -2.3%
Improved Response Over Basal Ration, Feed Efficiency [4]: +3.1%
Improved Response Over Basal Ration, Gain [4]: +1.2%

O=[N+]([O-])c1ccc(C=Cc2nc(Nc3ccccc3)c3ccccc3n2)o1 [Example IV, 2-[2-(5-nitro-2-furyl)vinyl]-4-anilinoquinazoline]
effectiveness compared with chlortetracycline (Streptococcus faecalis): considerably more effective
effectiveness compared with chlortetracycline [5]: considerably more effective
effectiveness compared with chlortetracycline [6]: considerably more effective
effectiveness compared with chlortetracycline (Streptococcus group E): considerably more effective
effectiveness compared with chlortetracycline (Vibrio coli): considerably more effective
effectiveness compared with chlortetracycline (Streptococcus agalactiae): considerably more effective

[O-][n+]1cc[n+]([O-])c2ccccc21 [Quinoxaline-1,4-dioxide, quinoxaline-1,4-dioxide]
response in growth rate and feed efficiency (in words) [7]: did not have any apparent effect

O=[N+]([O-])c1ccc(C=Cc2nc(Nc3ccc(O)cc3)c3ccccc3n2)o1 [Example I, 2-[2-(5-nitro-2-furyl)vinyl]-4-(p-hydroxyanilino)quinazoline]
growth and feed efficiency (in words) [8]: very substantial growth improvement and enhanced feed efficiency
growth promotion (in words) ([3]; low levels in feed): greater growth promotion than any of the other growth promotants
effectiveness compared with chlortetracycline (Streptococcus faecalis): considerably more effective
weight gain (in words) ([9]; 100 g/T): unexplained absence of weight gain improvement
activity (in words) ([9]; 400 g/T): sharp downturn
effectiveness compared with chlortetracycline [5]: considerably more effective
effectiveness compared with chlortetracycline [6]: considerably more effective
effectiveness compared with chlortetracycline (Streptococcus group E): considerably more effective
effectiveness compared with chlortetracycline (Vibrio coli): considerably more effective
effectiveness compared with chlortetracycline (Streptococcus agalactiae): considerably more effective
effect on growth rate and feed efficiency (in words) [1]: moderate improvements in production parameters in both tests
effect on growth rate and feed efficiency (in words) [2]: moderate improvements in production parameters in both tests

O=[N+]([O-])c1ccc(C=Cc2nc(Nc3cccc(O)c3)c3ccccc3n2)o1 [Example II, 2-[2-(5-nitro-2-furyl)vinyl]-4-(m-hydroxyanilino)quinazoline]
effectiveness compared with chlortetracycline (Streptococcus faecalis): considerably more effective
effectiveness compared with chlortetracycline [5]: considerably more effective
effectiveness compared with chlortetracycline [6]: considerably more effective
effectiveness compared with chlortetracycline (Streptococcus group E): considerably more effective
effectiveness compared with chlortetracycline (Vibrio coli): considerably more effective
effectiveness compared with chlortetracycline (Streptococcus agalactiae): considerably more effective
effect on growth rate and feed efficiency (in words) [1]: moderate improvements
